Drawing on PubChem BioAssay (NCI), this text covers TGI and GI50 for 14 compounds.

Common to all, as to test: NCI tumour cell line growth inhibition, 48 h
The test system of assay [1] is DMS 273 small cell lung.
The subject of assay [2] is COLO 205 colon.
The test system of assay [3] is KM20L2 colon.
Assay [4] has as its system OVCAR-4 ovarian.
The test system of assay [5] is NCI-H226 lung.
Assay [6] relates to SW-620 colon.
Assay [7] has as its system IGROV1 ovarian.
Assay [8] relates to HOP-92 NSCLC.
Assay [9] has as its system XF 498 CNS.
Assay [10] deals with T-47D breast.

Where “and” joins values, the source holds several entries; their conditions need not be identical. Equal values may be shown once.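 Briefly, cells in 96-well plates were exposed to five compound concentrations for 48 h, and endpoints were estimated by linear interpolation. Abbreviation: GI50, concentration required for 50% inhibition of growth. TGI marks complete inhibition of growth.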 Where only a bound is given, the exact number is not on record here.

For `CC(=O)NNc1nc(C)c(C(=O)NNC(=O)C(=O)Nc2ccccc2C#N)s1`, the TGI in assay [1], in assay [2], in [3], in [4], in assay [5] and in assay [6] was over 100 µM throughout. Moreover, the TGI in assay [7] and in [8] was over 100 µM throughout.
In the case of `Cc1cccc(NC(=O)CC(=O)N2N=C(N(CCC#N)c3ccc(Cl)cc3)CC2c2ccccc2)c1` (stereo not drawn), the TGI in [1], in assay [2], in [4], in [6], in [9] and in assay [7] was over 100 µM each time. The same compound came in with a TGI in assay [8] of over 100 µM.
With `O=Cc1cn(C(=O)c2ccccc2)c2ccccc12`, the TGI in [1], in assay [3], in assay [4], in assay [5], in assay [6] and in [7] was over 100 µM in each case.
Consider `O=C(CP(=O)(O)O)c1cccs1`, for which the TGI in [1], in assay [2], in [3], in [6], in [7] and in assay [8] was over 100 µM in each case.
As for `C=CCC1([C@H](C)[C@@H](OC(C)=O)c2cc(OC)c(OC)c(OC)c2)C[C@@H](OC)CCC1=O` (stereo partly drawn), the TGI in [2] was 42.2 µM; in assay [3], 24.6 µM; in assay [4] it was 85.1 µM; in assay [5], 44.2 µM; in assay [6] it was 38.6 µM; in assay [9], 32.9 µM. The TGI in assay [7] was 33.5 µM; in assay [8] it was over 100 µM.
With `CC1=NCCc2c1[nH]c1cc(O)ccc21`, the TGI in assay [2], in assay [3], in assay [4], in assay [5], in assay [6] and in [9] was over 100 µM in each case. Further, the TGI in assay [7] and in [8] was over 100 µM throughout.
Take `COc1ccccc1NC(=O)C1=C(C)NC(C)=C(C(=O)Nc2ccccc2OC)C1c1ccccc1F`: the TGI in assay [1], in assay [2], in assay [3], in [4], in assay [5] and in assay [6] was over 100 µM each time. Also, the TGI in assay [7] and in [8] was over 100 µM in each case.
On to `COc1cccc(NC(=O)CC(=O)N2N=C(N(CCC#N)c3ccc(Cl)cc3)CC2c2ccccc2)c1` (stereo not drawn), for which the TGI in assay [1], in assay [2], in assay [3], in assay [4], in [5] and in assay [6] was over 100 µM in each case. In addition, the TGI in assay [7] and in [8] was over 100 µM in each case.
On to `O=CNc1c(Cl)cc2c(c1Cl)Cc1cc([N+](=O)[O-])ccc1-2`, for which the GI50 in assay [2] is 4.76 µM; in [10], 5.49 µM; in assay [4], 6.11 µM; in assay [5], 4.21 µM; in assay [6] it was 3.33 µM; in assay [7] it was 0.923 µM. Moreover, in assay [8], the GI50 was 6.73 µM. In addition, the TGI in assay [2] was 23.7 µM; in assay [10] it was over 100 µM; in assay [4] it was over 100 µM; in [5], over 94.1 µM; in [6], over 100 µM; in [7], 38.7 µM. The same compound displayed a TGI in assay [8] of over 100 µM.
Take `COc1cc(C2c3cc4c(cc3[C@@H](Nc3ccc(C#N)cc3)C3COC(=O)[C@H]23)OCO4)cc(OC)c1O` (stereo partly drawn): the GI50 in assay [2] is 1.98 µM and 1.38 µM; in assay [10] it was 0.46 µM; in [5], 0.239 µM and 0.242 µM; in [6], 0.781 µM and 0.263 µM; in [7], 1.76 µM; in assay [8], 0.685 µM. Further, the TGI in assay [2] is 13 µM and 8.41 µM and 11.5 µM; in assay [3], 75 µM; in assay [4], 19.2 µM; in assay [5], 3.46 µM and 1.43 µM and 2.06 µM; in [6], 50 µM and 75 µM and 11.4 µM; in assay [9], 22.8 µM. Also, the TGI is 31.1 µM and 8.65 µM in [7]; 6.77 µM and 5.99 µM in assay [8].
Regarding `C[N+](C)(C)CC(=O)N/N=C(/Cc1nc2c3c(ccc2[nH]c1=O)C(=O)c1ccccc1C3=O)C(=O)Nc1ccc(Cl)c(Cl)c1`, the TGI was over 100 µM in assay [2]; over 100 µM in assay [3]; over 100 µM in assay [4]; over 100 µM in assay [6]; over 100 µM in [7]; 99.8 µM in assay [8].
Regarding `O=C(Cn1ccc(=O)[nH]c1=O)Nc1ccc(C(=O)O)c(O)c1`, the TGI in [2], in [10], in assay [4], in assay [5], in [6] and in [7] was over 100 µM each time. This compound also returned a TGI in [8] of over 100 µM.
With `CN(CCCN)CCCNc1nc2ccccc2c2[nH]c3ccccc3c12`, the GI50 was 0.178 µM in assay [2]; 0.283 µM in assay [10]; 0.201 µM in assay [4]; 0.297 µM in [5]; 0.315 µM in assay [6]; 0.329 µM in assay [7]. In assay [8], the GI50 was 0.208 µM. Besides, the TGI turned out to be 0.509 µM in [2]; 0.772 µM in [10]; 0.614 µM in assay [4]; 0.997 µM in assay [5]; 1.64 µM in assay [6]; 1.21 µM in [7]. In [8], the TGI was 0.736 µM.
Turning to `CCN(CC)c1ccc(C(=C2C=CC(=[N+](CC)Cc3cccc(S(=O)(=O)O)c3)C=C2)c2ccc(N(CC)Cc3cccc(S(=O)(=O)O)c3)cc2)cc1`, the GI50 in assay [2] is 1.87 µM; in assay [10], 3.14 µM; in [4], 8.71 µM; in assay [5], 9.07 µM; in [6], 4.45 µM; in [7], 13.3 µM. The GI50 in assay [8] was 15.2 µM. Further, the TGI in [2] was 3.83 µM; in assay [10], over 29.3 µM; in [4] it was over 100 µM; in assay [5], over 90.2 µM; in assay [6], over 100 µM; in assay [7], over 100 µM. Moreover, the TGI in assay [8] worked out at 65.8 µM.
